Reference: article PMC10047683, “A Novel Family of Lysosomotropic Tetracyclic Compounds for Treating Leukemia” (Cancers, 2023)

Legend:
[1] = tested on: primary AML samples (lineage-depleted umbilical cord blood cells as healthy counterpart); assay: Clonogenicity assay; type: cell-based, human
Protocol: 1,000 cells of AML cell lines or 50,000 primary cells (both AML and lin-depleted UCB) were treated at the indicated concentration for 18 h, and cultured in 1 mL of MethoCult H4034 Optimum (StemCell Technologies, Vancouver, BC, Canada).
Colonies were screened based on morphology and cellularity at day 7 (cell lines) […]
Calcium mobilization assay
1 x 10^6 cells per mL were loaded for 30’ at 37 °C with the Fura-2-AM probe (Thermo Fisher) at a final 2 µM concentration in pre-warmed calcium- and magnesium-free Hanks BSA solution. Cells were then washed and resuspended in Hanks BSA solution with calcium and magnesium at 3 x 10^5 cells per mL. In parallel, 50µL of drugs in Hanks BSA solution with calcium and magnesium were added to 96-well black wall clear bottom plates and background fluorescence was read at Ex340/Em508 and Ex380/Em508. Cells were then added to the plate (50µL/well) and fluorescence was acquired at indicated timepoints using a Synergy HT Multi-Detection Microplate Reader (BioTek). For the analysis, all values were subtracted their corresponding background fluorescence, and the ratio 340/380 was calculated. Finally, ratios were normalized to vehicle-treated […]
Semi-Quantitative Real Time PCR

[2] = tested on: A549; assay: Pancancer cell line panel viability; type: cell-based; settings: 10 µM, 48 h
Protocol: (§1) First, 2 × 10^5 (72 h assays in cell lines (Supplementary File S1)), 3 × 10^5 (48 h assays in cell lines) or 7.5 × 10^5 (primary AML, healthy donor buffy coats) cells per mL were cultured in 96-well plates, and all drugs were added at the indicated concentrations. In α-tocopherol experiments, cells were treated with growing concentrations of α-tocopherol and EDK drugs for 48 h. In the NAC and 3MA experiments, treatment was simultaneous with EDK compounds. In glucose deprivation experiments, cells were cultivated with a standard medium (glucose high, 2 g/L), a standard medium without glucose, or a standard medium with galactose (2 g/L) and without glucose. Cell viability was measured via 7-AAD (eBioscience) exclusion and Hoechst33342 (Sigma-Aldrich, St. Louis, MO, USA) positivity staining via flow cytometry, and the cell count was obtained through volume. In the experiments with the primary cells, analyses were performed inside the blast population as detected via blast gates (CD45^low SSC^int). For solid tumor cell lines, viability was analyzed using CellTiter-Glo® Luminescent Cell Viability Assay (Promega).
(§2) AML cell lines and cell cultures
(§3) Cell lines HL-60 (ACC-3), KG-1 (ACC-14), MonoMac-1 (ACC-252), Kasumi-1 […]
(§4) obtained from DSMZ. Cell lines THP-1 (TIB-202TM), MCF-7 (HTB-22™), MDA- […]
(§5) 3216™) and HS-5 (CRL-11882™) were obtained from ATCC. HBL-2 cell line was kindly supplied by Dr. Pérez-Galán (IDIBAPS, Barcelona, Spain). SKM-1 and U937 were kindly provided by Dr. Marcus Buschbeck (IJC, Badalona, Spain). All cell lines were cultured in the conditions indicated by the providers, and were tested for mycoplasma on a monthly basis.
(§6) All drugs were resuspended in H2O (Thermo Fischer Scientific), DMSO (Sigma-Aldrich) or ethanol (VWR) according to manufacturer’s specifications. - tocopherol, 3-methyladenine (3MA), arsenic trioxide (ATO) and N-acetyl-L-cysteine (NAC) were purchased from Sigma Aldrich. Chloroquine diphosphate was purchased from Merck. Etoposide and ionomycin were purchased from […]
(§7) (1 picture or pasted object on this page, not shown here)

[3] = tested on: ACHN; assay: Pancancer cell line panel viability; type: cell-based; settings: 10 µM, 48 h
Protocol: as §1, §2, §3, §4, §5, §6, §7

[4] = tested on: CAKI; assay: Pancancer cell line panel viability; type: cell-based; settings: 10 µM, 48 h
Protocol: as §1, §2, §3, §4, §5, §6, §7

[5] = tested on: DU-145; assay: Pancancer cell line panel viability; type: cell-based; settings: 10 µM, 48 h
Protocol: as §1, §2, §3, §4, §5, §6, §7

[6] = tested on: GRANTA; assay: Pancancer cell line panel viability; type: cell-based; settings: 10 µM, 48 h
Protocol: as §1, §2, §3, §4, §5, §6, §7

[7] = tested on: HBL2; assay: Pancancer cell line panel viability; type: cell-based; settings: 10 µM, 48 h
Protocol: as §1, §2, §3, §4, §5, §6, §7

[8] = tested on: HCT-116; assay: Pancancer cell line panel viability; type: cell-based; settings: 10 µM, 48 h
Protocol: as §1, §2, §3, §4, §5, §6, §7

[9] = tested on: HCT-15; assay: Pancancer cell line panel viability; type: cell-based; settings: 10 µM, 48 h
Protocol: as §1, §2, §3, §4, §5, §6, §7

[10] = tested on: HOP62; assay: Pancancer cell line panel viability; type: cell-based; settings: 10 µM, 48 h
Protocol: as §1, §2, §3, §4, §5, §6, §7

[11] = tested on: JJN3; assay: Pancancer cell line panel viability; type: cell-based; settings: 10 µM, 48 h
Protocol: as §1, §2, §3, §4, §5, §6, §7

[12] = tested on: Jurkat; assay: Pancancer cell line panel viability; type: cell-based; settings: 10 µM, 48 h
Protocol: as §1, §2, §3, §4, §5, §6, §7

[13] = tested on: K562; assay: Pancancer cell line panel viability; type: cell-based; settings: 10 µM, 48 h
Protocol: as §1, §2, §3, §4, §5, §6, §7

[14] = tested on: M14; assay: Pancancer cell line panel viability; type: cell-based; settings: 10 µM, 48 h
Protocol: as §1, §2, §3, §4, §5, §6, §7

[15] = tested on: MCF-7; assay: Pancancer cell line panel viability; type: cell-based; settings: 10 µM, 48 h
Protocol: as §1, §2, §3, §4, §5, §6, §7

[16] = tested on: MDA-MB-231; assay: Pancancer cell line panel viability; type: cell-based; settings: 10 µM, 48 h
Protocol: as §1, §2, §3, §4, §5, §6, §7

[17] = tested on: MDA-MB-435; assay: Pancancer cell line panel viability; type: cell-based; settings: 10 µM, 48 h
Protocol: as §1, §2, §3, §4, §5, §6, §7

[18] = tested on: MOLT4; assay: Pancancer cell line panel viability; type: cell-based; settings: 10 µM, 48 h
Protocol: as §1, §2, §3, §4, §5, §6, §7

[19] = tested on: NCI; assay: Pancancer cell line panel viability; type: cell-based; settings: 10 µM, 48 h
Protocol: as §1, §2, §3, §4, §5, §6, §7

[20] = tested on: OVCAR; assay: Pancancer cell line panel viability; type: cell-based; settings: 10 µM, 48 h
Protocol: as §1, §2, §3, §4, §5, §6, §7

[21] = tested on: PC-3; assay: Pancancer cell line panel viability; type: cell-based; settings: 10 µM, 48 h
Protocol: as §1, §2, §3, §4, §5, §6, §7

[22] = tested on: RAMOS; assay: Pancancer cell line panel viability; type: cell-based; settings: 10 µM, 48 h
Protocol: as §1, §2, §3, §4, §5, §6, §7

[23] = tested on: SR; assay: Pancancer cell line panel viability; type: cell-based; settings: 10 µM, 48 h
Protocol: as §1, §2, §3, §4, §5, §6, §7

[24] = tested on: U266; assay: Pancancer cell line panel viability; type: cell-based; settings: 10 µM, 48 h
Protocol: as §1, §2, §3, §4, §5, §6, §7

[25] = tested on: HEK-293T; assay: Pancancer cell line panel viability (nontumor line); type: cell-based; settings: HEK-293T (nontumor); 10 µM; 48 h
Protocol: as §1, §2, §3, §4, §5, §6, §7

[26] = tested on: HS-5; assay: as above; type: cell-based; settings: HS-5 (nontumor); 10 µM; 48 h
Protocol: as §1, §2, §3, §4, §5, §6, §7

[27] = ADME-Tox: clearance / metabolic rate; type: in vitro ADME
Protocol: All ADMET studies were performed in Eurofins Discovery Services (CEREP laboratories, Celle-Lévescault France). The pharmacokinetic studies were performed in Draconis Pharma SL (Barcelona, Spain) in CD-1 mice treated with 30 mg/kg EDK87 or EDK88 via SC or OG. Blood was collected by cardiac puncture at 0.5, 1, 2, 4, or 24 h.

Which results are given for `CN1CCC(=C2c3ccccc3-c3c2sc2ccccc32)CC1` [EDK-87]?
clonogenicity, effect in AML ([1]; primary AML samples): 77.9% ± 9.2; therapeutic window (clonogenicity) ([1]; primary AML vs lineage-depleted umbilical cord blood): 3.2; # Live cells refer to control [2]: 74%; # Live cells refer to control [3]: 70%; # Live cells refer to control [4]: 58%; # Live cells refer to control [5]: 57%; # Live cells refer to control [6]: 35%; # Live cells refer to control [7]: 58%; # Live cells refer to control [8]: 64%; # Live cells refer to control [9]: 52%; # Live cells refer to control [10]: 44%; # Live cells refer to control [11]: 55%; # Live cells refer to control [12]: 51%; # Live cells refer to control [13]: 87%; # Live cells refer to control [14]: 21%; # Live cells refer to control [15]: 32%; # Live cells refer to control [16]: 47%; # Live cells refer to control [17]: 11%; # Live cells refer to control [18]: 25%; # Live cells refer to control [19]: 45%; # Live cells refer to control [20]: 59%; # Live cells refer to control [21]: 65%; # Live cells refer to control [22]: 74%; # Live cells refer to control [23]: 42%; # Live cells refer to control [24]: 70%; # Live cells refer to control [25]: 79%; # Live cells refer to control [26]: 71%; metabolic rate as compared to EDK-88 [27]: higher
